Test results: patent US20210275640A1, “METHODS FOR ENHANCING PERMEABILITY TO BLOOD-BRAIN BARRIER, AND USES THEREOF” (ACADEMIA SINICA, priority 2014, published 2021)
Where “and” joins values, the source holds several entries; their conditions need not be identical. Equal values may be shown once. Read-outs that look alike come from different tables or passages of the source.

Legend:
[1] = test system: blood-brain barrier (BBB)
[2] = test system: MCAO ischaemic stroke model; experiment: Middle Cerebral Artery Occlusion (MCAO) model, hMSC cell therapy with VEGF pre-treatment; format: in vivo, rats
Excerpt: The procedure published by Boyko and colleagues (Boyko, et al., Journal of Neuroscience Methods 193(2): 246-253; 2010) was used to create a middle cerebral artery occlusion (MCAO) model in rats. In brief, the left side carotid bifurcation was exposed with a self-retractor. After carefully separating the […] (ICA) from peripheral soft tissue, a small opening was created at the proximal ICA. Silicon-coated 4-0 monofilament nylon was inserted from the opening and penetrated forward to the beginning of middle cerebral artery (MCA). An O2C oximeter was used to transcranially monitor the ipsilateral MCA blood flow. Once blood flow decreased successfully, the nylon suture was fixed in situ, mimicking ischaemic stroke. After 90 minutes of ischaemic injury, the suture was removed, allowing reperfusion. A stable and reproducible cerebral infarction could be created with this procedure. […] MCAO model rats were divided into four groups: […] Discosoma sp. Red (Ds-Red)-expressing human mesenchymal stem cells (hMSCs) were used for MCAO cell therapy. […] To evaluate the infarction size, rats were sacrificed three days after ischaemic-reperfusion injury and treatment. […] Brain slices were then scanned and the infarction size was calculated by measuring the pale area with ImageJ software. […]

[3] = test system: U87 MG human glioblastoma xenograft; experiment: Effect of intravenous VEGF on tumor luminescence in U87 MG intracranial xenograft (IVIS); format: in vivo, BALB/c NU mice; details: paired t-test per mouse
[4] = test system: U-87MG glioblastoma xenograft; details: for Median Survival: VEGF 0.3 μg/kg where given
Method: The human luciferase-expressing glioblastoma cell line U-87MG was used for all GBM experiments. Cells were routinely cultured in EMEM with 10% FBS, at 37° C. with 5% CO2.
BALB/c nude mice were orthotropically xenografted with U87 glioma cells (2×10^5) by stereotactic (2 mm right and 1 mm posterior to the bregma, 3.5 mm deep from the dura) injection into the brain. Mouse tumor progression was measured by IVIS at different time points (0, 1, 3, 7 . . . every 7 days until 60 days).
The DNA methylating drug temozolomide (TMZ) was used as therapy for GBM model mice. […] Tumor growth was monitored by in vivo bioluminescent imaging. Mice were observed over 60 days and their survival rates recorded on a Kaplan-Meier survival curve.

[5] = test system: blood-brain barrier (BBB); experiment: Penetration of PEGylated fluorescent nanoparticles through the BBB (IVIS, immunohistochemistry); format: in vivo, FVB mice; details: 0.3 μg/Kg VEGF iv 45 min before PEGylated nanoparticles
Excerpt: COOH-modified nanoparticles (20 to 500 nm) were covalently modified with methoxy (MeO)-PEG-amine (NH2) according to previously published protocols (Nance et al., Sci Transl Med 4(149): 149ra119; 2012). PEGylated fluorescent nanoparticles of 20 nm, 100 nm and 500 nm were used to investigate the biodistribution and extravasation after intravenous injection and perfusion into FVB mice. These nanoparticles were quantified by IVIS and immunohistochemistry.
All IVIS images were taken using a Xenogen IVIS Spectrum device (PerkinElmer, Waltham, Mass.).
The mice were subjected to perfusion following routine procedures 30 minutes after injection of the nanoparticles and the brain tissues were analyzed by IVIS imaging and immunohistochemistry. FIG. 2, panel A. The amount of nanoparticles accumulated in the brain tissue (i.e., across the BBB) was determined by measuring the intensity of the fluorescent signals. Results are illustrated in FIG. 2, panels B-D.

[6] = test system: blood-brain barrier (BBB); remark: listed apart in the source

“vascular endothelial growth factor [VEGF]” was tested, and the “Cortex, signal to noise ratio T1WI Post-iv” value ([1]; 5 minutes after 0.2 mmol/kg gadolinium contrast agent, given 45 min after VEGF) was 58.30, the “Increase % of signal to noise ratio (detectable level of gadolinium contrast agent in brain)” value ([1]; average, VEGF 0.3 ug/kg pre-treatment) was 15.5% and the “Signal to noise ratio (SNR) enhancement, individual mice” value ([1]; each of the 3 VEGF-treated mice) was 17% and 14% and 15.5%. The Brain infarction ([2]; MCAO, VEGF pre-treatment 0.3 μg/kg) was “reduced the brain infarction”, the “hMSCs delivered to the brain (Ds-Red fluorescent intensity)” value ([2]; hMSCs 35 min after 0.3 μg/kg VEGF, vs control) was “more hMSCs were delivered to the brain” and the “Change of tumor size from D21 to D27” value [3] was “tumors were larger”. For the same compound, the “Median Survival with VEGF vs TMZ alone (% increase)” value ([4]; GBM mice, TMZ 5 mg/kg) was 10 % increase, the “Delay in tumor growth by TMZ with VEGF pre-treatment” value ([4]; VEGF 0.3 μg/kg before 5 mg/kg TMZ) was “further enhanced the delay in tumor growth” and the “Nanoparticles crossing the BBB (fluorescence intensity in brain)” value [5] was “facilitated the nanoparticles to cross BBB”. The “Persistence of increased BBB permeability” value ([6]; 0.3 μg/kg VEGF) was “at least 60 min”, the “Time of maximum BBB permeability after VEGF” value ([6]; 0.3 μg/kg VEGF) was “about 45 min” and the “Time after VEGF injection at which significant BBB permeability increase was observed” value ([6]; 0.3 μg/kg VEGF, EB injected after VEGF) was 15 min. The “Time to return to normal BBB permeability” value ([6]; after VEGF administration) was 2 h, the “Duration of increased BBB permeability” value ([6]; low dose VEGF) was “about 1 hr” and the “BBB permeability of EB (Evans Blue content of brain tissue)” value ([6]; mice, VEGF 0.1-2.0 μg/kg, vs saline control) was “increased BBB permeability”. The “Time of peak BBB permeability after VEGF administration” value ([6]; summary statement) was 45 min and the “Increase of BBB permeability” value ([6]; temporary increase after VEGF administration) was “approximately three-fold”.

`Cn1nnc2c(C(N)=O)ncn2c1=O` [TMZ, temozolomide] was tested, and the “Delay of GBM growth” value ([4]; 5 mg/kg TMZ, vs GBM mice not treated by TMZ) was “at least 20 days”, the “Median Survival vs vehicle (% increase)” value ([4]; GBM mice, TMZ 5 mg/kg) was 31.58 % increase and the “Median Survival” value ([4]; GBM mice, TMZ 5 mg/kg) was 50 days. For the same compound, the “Median Survival vs vehicle (% increase)” value ([4]; GBM mice, TMZ 20 mg/kg) was 31.58 % increase and the “Median Survival” value ([4]; GBM mice, TMZ 20 mg/kg) was 50 days.
